Measured values from patent publication US12139481B2, “Compositions comprising macrocycle derivatives incorporating bridged macrocycles and methods of producing and using same” (Southwestern Oklahoma State University, priority 2015, dated 2024).

Tests used:
[1] = test system: methicillin-resistant S. aureus ATCC 33591 (MRS); test: Antibacterial broth dilution assay against MRSA (modified CLSI); format: cell-based, Staphylococcus aureus; details: for MRSa IC50 / IC50: in vitro; for IC50: converted with molecular weight; for X more potent than ciprofloxacen: molar IC50 ratio versus ciprofloxacen
Outline: (§1)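 Growth read by optical density at 530 nm, duplicate wells, 1% final DMSO. Staphylococcus spp.: Mueller-Hinton pH 7.3, 5.0×10^5 CFU/ml, 35 °C for 16-20 h; Candida spp.: RPMI/dextrose/glutamine/MOPS pH 6.0, 1.5×10^3 CFU/ml, 35 °C for 46-50 h. Reported values are 50% inhibition versus controls, no-growth MIC, and killing MFC/MBC.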

[2] = test system: Plasmodium falciparum D6 clone (Sierra Leon, chloroquine-sensitive); test: In vitro antimalarial assay, chloroquine-sensitive D6 clone; format: cell-based; details: D6 clone; for IC50: converted with molecular weight, read-out: P. falciparum D6 IC50; for X more potent than chloroquine: molar IC50 ratio versus chloroquine
Outline: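 Parasites grown in type A human RBCs; assay run on infected cell suspension at 2% parasitemia and 2% hematocrit, in duplicate at several concentrations. IC50 taken from dose curves, per the Makler method, with DMSO as vehicle; Vero cytotoxicity run in parallel to derive a selectivity index.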

C. krusei ATCC 6258 = test: Antifungal broth dilution assay against C. krusei (modified CLSI); format: cell-based, Candida krusei; details: for X more potent than Amphotericin B: C. krusei, ratio of molar IC50 to amphotericin B; for C. krusei IC50 / IC50: in vitro; for IC50: read-out: C. krusei IC50 (mol/L)
Outline: as §1

Row | SMILES | MRSa IC50 [1] [µg/mL] | IC50 [1] [nM] | X more potent than ciprofloxacen [1] | P. falciparum D6 IC50 [2] [µg/mL] | IC50 [2] [nM] | X more potent than chloroquine [2] | X more potent than Amphotericin B (C. krusei ATCC 6258) | C. krusei IC50 (C. krusei ATCC 6258) [µg/mL] | IC50 (C. krusei ATCC 6258) [nM] | IC50 ([1]; HCl salt) [nM]
1 | c1ccc(CN2CCN3CCCN(CC2)CCN(Cc2ccccc2)CC3)cc1 [AW009, Bn2PBCyclen] | 1.050 | 2680 | 0.08 | 1.0770 | 2740 | 0.01 | 0.10 | 6.170 | 15700 | 
2 | [Cl][Mn-2]([Cl])([Cl])[Cl].[Mn+2].c1ccc(CN2CCCN3CCCN(CCCN(Cc4ccccc4)CC3)CC2)cc1 [BME08, [Mn(Bn2PBCyclam)][MnCl4]] | 0.800 | 1190 | 0.18 | 0.0967 | 144 | 0.25 | 0.19 | 5.270 | 7840 | 
3 | CC(=O)[O-].F[P-](F)(F)(F)(F)F.[Ni+2].c1ccc(CN2CCCN3CCCN(CCCN(Cc4ccccc4)CC3)CC2)cc1 [DJD22, [Ni(Bn2PBCyclam)(OAc)]PF6] | 4.620 | 6760 | 0.03 | 0.7074 | 1040 | 0.04 | 0.19 | 5.250 | 7680 | 
4 | c1cc(CN2CCCN3CCCN(CCCNCC3)CC2)ccc1CN1CCCN2CCCN(CCCNCC2)CC1 [SLK10, p-H2PBCyclams] | 2.500 | 4290 | 0.05 | 0.8657 | 1480 | 0.02 |  |  |  | 
5 | CN1CCCN2CCN(CCCN(Cc3cccc(CN4CCCN5CCN(C)CCCN(CC5)CC4)c3)CC2)CC1.Cl.Cl.Cl.Cl.Cl.Cl.Cl.Cl [TJS04, m-CB-cyclams HCl salt] | 7.050 |  | 0.03 | 0.7450 | 852 | 0.04 |  |  |  | 7240
